Earlier results in US8278324B2, “Oxadiazole derivatives active on sphingosine-1-phosphate (S1P)” (Glaxo Group Limited, priority 2007, dated 2012).

Key:
[1] = test system: circulating lymphocytes; conditions: animals and man
[2] = clinical studies, first 24 hours of treatment

bradycardia [2]: results in bradycardia
Compound: CCCCCCCCc1ccc(CCC(N)(CO)CO)cc1 [FTY720]
effect on circulating lymphocytes [1]: reduce circulating lymphocytes
